From PubChem BioAssay (NCI)
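Interpolation was linear, between the two tested concentrations surrounding the appropriate level; five concentrations were tested over 48 hours in 96-well plates. TGI marks complete inhibition of growth.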

Tests used:
Experiment in all cases: NCI tumour cell line growth inhibition, 48 h
786-0 renal = tested on: 786-0 renal
A498 renal = tested on: A498 renal
A549 NSCLC = tested on: A549 NSCLC
ACHN renal = tested on: ACHN renal
BT-549 breast = tested on: BT-549 breast
CAKI-1 renal = tested on: CAKI-1 renal
COLO 205 colon = tested on: COLO 205 colon
DU-145 prostate = tested on: DU-145 prostate
EKVX NSCLC = tested on: EKVX NSCLC
HCC-2998 colon = tested on: HCC-2998 colon
HL-60(TB) leukemia = tested on: HL-60(TB) leukemia
HOP-62 NSCLC = tested on: HOP-62 NSCLC
HOP-92 NSCLC = tested on: HOP-92 NSCLC
HS 578T breast = tested on: HS 578T breast
HT29 colon = tested on: HT29 colon
IGROV1 ovarian = tested on: IGROV1 ovarian
KM12 colon = tested on: KM12 colon
M14 melanoma = tested on: M14 melanoma
MCF7 breast = tested on: MCF7 breast
MDA-MB-435 = tested on: MDA-MB-435
MDA-N = tested on: MDA-N
NCI-H226 lung = tested on: NCI-H226 lung
NCI-H23 lung = tested on: NCI-H23 lung
NCI/ADR-RES ovarian = tested on: NCI/ADR-RES ovarian
OVCAR-3 ovarian = tested on: OVCAR-3 ovarian
OVCAR-4 ovarian = tested on: OVCAR-4 ovarian
OVCAR-5 ovarian = tested on: OVCAR-5 ovarian
OVCAR-8 ovarian = tested on: OVCAR-8 ovarian
PC-3 prostate = tested on: PC-3 prostate
SF-268 CNS = tested on: SF-268 CNS
SF-295 CNS = tested on: SF-295 CNS
SK-MEL-2 melanoma = tested on: SK-MEL-2 melanoma
SK-MEL-28 melanoma = tested on: SK-MEL-28 melanoma
SK-OV-3 ovarian = tested on: SK-OV-3 ovarian
SN12C renal = tested on: SN12C renal
SNB-19 CNS = tested on: SNB-19 CNS
SNB-75 CNS = tested on: SNB-75 CNS
SW-620 colon = tested on: SW-620 colon
T-47D breast = tested on: T-47D breast
TK-10 renal = tested on: TK-10 renal
U251 CNS = tested on: U251 CNS
UACC-257 melanoma = tested on: UACC-257 melanoma
UACC-62 melanoma = tested on: UACC-62 melanoma
CCRF-CEM leukemia = tested on: CCRF-CEM leukemia
HCT-116 colon = tested on: HCT-116 colon
HCT-15 colon = tested on: HCT-15 colon
K-562 leukemia = tested on: K-562 leukemia
LOX IMVI melanoma = tested on: LOX IMVI melanoma
MALME-3M melanoma = tested on: MALME-3M melanoma
MDA-MB-231 breast = tested on: MDA-MB-231 breast
MOLT-4 leukemia = tested on: MOLT-4 leukemia
NCI-H460 lung = tested on: NCI-H460 lung
NCI-H522 lung = tested on: NCI-H522 lung
RPMI-8226 leukemia = tested on: RPMI-8226 leukemia
RXF 393 renal = tested on: RXF 393 renal
SF-539 CNS = tested on: SF-539 CNS
SK-MEL-5 melanoma = tested on: SK-MEL-5 melanoma
UO-31 renal = tested on: UO-31 renal

## Cc1ccsc1/C=N/Nc1cc(C)c2cccc(C)c2n1
786-0 renal
  TGI: > 100 µM
A498 renal
  TGI: > 100 µM
A549 NSCLC
  TGI: > 100 µM
ACHN renal
  TGI: > 100 µM
BT-549 breast
  TGI: > 100 µM
CAKI-1 renal
  TGI: > 100 µM
COLO 205 colon
  TGI: > 100 µM
DU-145 prostate
  TGI: > 100 µM
EKVX NSCLC
  TGI: > 100 µM
HCC-2998 colon
  TGI: > 100 µM
HL-60(TB) leukemia
  TGI: 71.2 µM
HOP-62 NSCLC
  TGI: > 100 µM
HOP-92 NSCLC
  TGI: > 100 µM
HS 578T breast
  TGI: > 100 µM
HT29 colon
  TGI: > 100 µM
IGROV1 ovarian
  TGI: > 100 µM
KM12 colon
  TGI: > 100 µM
M14 melanoma
  TGI: > 100 µM
MCF7 breast
  TGI: > 100 µM
MDA-MB-435
  TGI: > 100 µM
MDA-N
  TGI: > 100 µM
NCI-H226 lung
  TGI: > 100 µM
NCI-H23 lung
  TGI: > 100 µM
NCI/ADR-RES ovarian
  TGI: > 100 µM
OVCAR-3 ovarian
  TGI: > 100 µM
OVCAR-4 ovarian
  TGI: > 100 µM
OVCAR-5 ovarian
  TGI: > 100 µM
OVCAR-8 ovarian
  TGI: > 100 µM
PC-3 prostate
  TGI: > 100 µM
SF-268 CNS
  TGI: > 100 µM
SF-295 CNS
  TGI: > 100 µM
SK-MEL-2 melanoma
  TGI: > 100 µM
SK-MEL-28 melanoma
  TGI: > 100 µM
SK-OV-3 ovarian
  TGI: > 100 µM
SN12C renal
  TGI: > 100 µM
SNB-19 CNS
  TGI: > 100 µM
SNB-75 CNS
  TGI: > 100 µM
SW-620 colon
  TGI: > 100 µM
T-47D breast
  TGI: > 100 µM
TK-10 renal
  TGI: > 100 µM
U251 CNS
  TGI: > 100 µM
UACC-257 melanoma
  TGI: > 100 µM
UACC-62 melanoma
  TGI: > 100 µM

## NNc1nc2ccccc2c(=O)n1NC(=O)C(=O)Nc1cccc(C(F)(F)F)c1
786-0 renal
  TGI: > 100 µM
A498 renal
  TGI: > 100 µM
A549 NSCLC
  TGI: > 100 µM
ACHN renal
  TGI: > 100 µM
BT-549 breast
  TGI: > 100 µM
CAKI-1 renal
  TGI: > 100 µM
CCRF-CEM leukemia
  TGI: > 100 µM
EKVX NSCLC
  TGI: > 100 µM
HCC-2998 colon
  TGI: > 100 µM
HCT-116 colon
  TGI: > 100 µM
HCT-15 colon
  TGI: > 100 µM
HL-60(TB) leukemia
  TGI: > 100 µM
HOP-62 NSCLC
  TGI: > 100 µM
HOP-92 NSCLC
  TGI: > 100 µM
HS 578T breast
  TGI: > 100 µM
HT29 colon
  TGI: > 100 µM
IGROV1 ovarian
  TGI: > 100 µM
K-562 leukemia
  TGI: > 100 µM
KM12 colon
  TGI: > 100 µM
LOX IMVI melanoma
  TGI: > 100 µM
M14 melanoma
  TGI: > 100 µM
MALME-3M melanoma
  TGI: > 100 µM
MCF7 breast
  TGI: > 100 µM
MDA-MB-231 breast
  TGI: > 100 µM
MDA-MB-435
  TGI: > 100 µM
MDA-N
  TGI: > 100 µM
MOLT-4 leukemia
  TGI: > 100 µM
NCI-H226 lung
  TGI: > 100 µM
NCI-H23 lung
  TGI: > 100 µM
NCI-H460 lung
  TGI: > 100 µM
NCI-H522 lung
  TGI: > 100 µM
NCI/ADR-RES ovarian
  TGI: > 100 µM
OVCAR-3 ovarian
  TGI: > 100 µM
OVCAR-4 ovarian
  TGI: > 100 µM
OVCAR-5 ovarian
  TGI: > 100 µM
OVCAR-8 ovarian
  TGI: > 100 µM
PC-3 prostate
  TGI: > 100 µM
RPMI-8226 leukemia
  TGI: > 100 µM
RXF 393 renal
  TGI: > 100 µM
SF-268 CNS
  TGI: > 100 µM
SF-295 CNS
  TGI: > 100 µM
SF-539 CNS
  TGI: > 100 µM
SK-MEL-2 melanoma
  TGI: > 100 µM
SK-MEL-28 melanoma
  TGI: > 100 µM
SK-MEL-5 melanoma
  TGI: > 100 µM
SK-OV-3 ovarian
  TGI: > 100 µM
SN12C renal
  TGI: > 100 µM
SNB-19 CNS
  TGI: > 100 µM
SNB-75 CNS
  TGI: > 100 µM
SW-620 colon
  TGI: > 100 µM
T-47D breast
  TGI: > 100 µM
TK-10 renal
  TGI: > 100 µM
U251 CNS
  TGI: > 100 µM
UACC-257 melanoma
  TGI: > 100 µM
UACC-62 melanoma
  TGI: > 100 µM
UO-31 renal
  TGI: > 100 µM
